The test system of experiment [1] is HT-29. As to the kind of experiment: Percent inhibition of growth of human colon adenocarcinoma cells, HT-29 cells, at 50 uM concentration; NE=No effect. Format: functional, cell-based.
The nature of experiment [2]: Percent inhibition of growth of human esophageal squamous cell carcinoma cells, KYSE150 cells, at 50 uM concentration (Range=20-40%). Format: functional. Particulars: KYSE-150.
The test system of experiment [3] is INT-407 (Homo sapiens). As to the kind of experiment: Percent inhibition of growth of an immortalized human intestinal epithelial cells, INT-407 cells.
Experiment [4] in a line: Percent inhibition of growth of an immortalized rat intestinal epithelial cell line, IEC-6 cell line. In kind it is functional.
The nature of experiment [5]: Percent inhibition of growth of human esophageal squamous cell carcinoma cells, KYSE150 cells. Format: functional.
The species named for experiment [6] is Mus musculus. As to the kind of experiment: Evaluated to inhibit the release of arachidonic acid and the production of nitric oxide(NO) by lipopolysaccharide (LPS)-stimulated murine macrophages (RAW264.7); NE=No effect. In kind it is functional, organism-based.
The test system of experiment [7] is HT-29. As to the kind of experiment: Percent inhibition of growth of human colon adenocarcinoma cells, HT-29 cells. Format: functional.
Experiment [8] concerns HCT-116. As to the kind of experiment: Percent inhibition of growth of human colon adenocarcinoma cells, HCT116 cells. Format: functional.
Experiment [9] concerns HT-29. As to the kind of experiment: Inhibitory concentration against human colon adenocarcinoma cells, HT-29 cells (Range=15-73). Format: functional, cell-based.
The test system of experiment [10] is INT-407 (Homo sapiens). As to the kind of experiment: Inhibitory concentration against an immortalized human intestinal epithelial cells, INT-407 cells (Range=15-73). To be noted: epithelial cell.
The species entered for experiment [11] is Mus musculus. As to the kind of experiment: Evaluated to inhibit the release of arachidonic acid and the production of nitric oxide(NO) by lipopolysaccharide (LPS)-stimulated murine macrophages (RAW264.7). In kind it is functional, organism-based.
Experiment [12] can be described thus: Inhibitory concentration against an immortalized rat intestinal epithelial cell line, IEC-6 cell line (Range=15-73). Format: functional, cell-based.
Experiment [13] relates to HCT-116. As to the kind of experiment: Inhibitory concentration against human colon adenocarcinoma cells, HCT116 cells (Range=15-73). Format: functional, cell-based.
Experiment [14] in a line: Inhibitory concentration against human esophageal squamous cell carcinoma cells, KYSE150 cells (Range=15-73). Format: functional.

Activity calls are given as the source filed them. The rule behind the calls is not given here.

Among the data in ChEMBL document CHEMBL1144364, “Synthesis and biological activity of the tea catechin metabolites, M4 and M6 and their methoxy-derivatives” (Bioorg Med Chem Lett, 2005) are inhibition, Inhibition and IC50 values, retold here.

Consider `COc1ccc(CC2CCC(=O)O2)cc1O` (stereo not drawn), for which the inhibition result in experiment [1] was “inactive”. This compound also returned an inhibition at 50 µM in [2] of 40%.

In the case of `COc1cc(CC2CCC(=O)O2)cc(OC)c1OC` (stereo not drawn), the Inhibition in experiment [3], in experiment [4], in experiment [5], in experiment [7] and in experiment [8] was less than 20% throughout. Besides, in experiment [6], the concentration for half-maximal inhibition (IC50) entry was “Not Active”.

On to `O=C1CCC(Cc2ccc(O)c(O)c2)O1` (stereo not drawn), for which, in experiment [1], the inhibition result is “inactive”. The inhibition at 50 µM in experiment [2] was 40%.

For the compound `COc1ccc(CC2CCC(=O)O2)cc1OC` (stereo not drawn), the inhibition result in experiment [1] was “inactive”. Further, the inhibition at 50 µM in experiment [2] is 40%.

Turning to `O=C1CCC(Cc2cc(O)c(O)c(O)c2)O1` (stereo not drawn), the half-inhibitory concentration (IC50) in experiment [9] was 73 µM; in experiment [10] it was 73 µM; in [11], 20 µM; in [12], 73 µM; in [13], 73 µM; in experiment [14], 73 µM.

A word on the inhibition: it is how much of the control response was suppressed. One may read the Inhibition as the share of the control response that was lost under treatment. Read a low Inhibition as a weak effect. The IC50 is the concentration at which inhibition is half-maximal. A lower IC50 goes with greater potency.
